Data as given in article PMC2884290 (Neuropsychopharmacology : official publication of the …, 2009).
Read-outs that look alike come from different tables or passages of the source.

Key:
[1] = molecular target: T1, mGluR5 (Rattus norvegicus, UniProt P31424); format: cell-based
[2] = molecular target: T1, mGluR5; assay: PI hydrolysis in rat hippocampal slices

T1 sequence (P31424 21-1203): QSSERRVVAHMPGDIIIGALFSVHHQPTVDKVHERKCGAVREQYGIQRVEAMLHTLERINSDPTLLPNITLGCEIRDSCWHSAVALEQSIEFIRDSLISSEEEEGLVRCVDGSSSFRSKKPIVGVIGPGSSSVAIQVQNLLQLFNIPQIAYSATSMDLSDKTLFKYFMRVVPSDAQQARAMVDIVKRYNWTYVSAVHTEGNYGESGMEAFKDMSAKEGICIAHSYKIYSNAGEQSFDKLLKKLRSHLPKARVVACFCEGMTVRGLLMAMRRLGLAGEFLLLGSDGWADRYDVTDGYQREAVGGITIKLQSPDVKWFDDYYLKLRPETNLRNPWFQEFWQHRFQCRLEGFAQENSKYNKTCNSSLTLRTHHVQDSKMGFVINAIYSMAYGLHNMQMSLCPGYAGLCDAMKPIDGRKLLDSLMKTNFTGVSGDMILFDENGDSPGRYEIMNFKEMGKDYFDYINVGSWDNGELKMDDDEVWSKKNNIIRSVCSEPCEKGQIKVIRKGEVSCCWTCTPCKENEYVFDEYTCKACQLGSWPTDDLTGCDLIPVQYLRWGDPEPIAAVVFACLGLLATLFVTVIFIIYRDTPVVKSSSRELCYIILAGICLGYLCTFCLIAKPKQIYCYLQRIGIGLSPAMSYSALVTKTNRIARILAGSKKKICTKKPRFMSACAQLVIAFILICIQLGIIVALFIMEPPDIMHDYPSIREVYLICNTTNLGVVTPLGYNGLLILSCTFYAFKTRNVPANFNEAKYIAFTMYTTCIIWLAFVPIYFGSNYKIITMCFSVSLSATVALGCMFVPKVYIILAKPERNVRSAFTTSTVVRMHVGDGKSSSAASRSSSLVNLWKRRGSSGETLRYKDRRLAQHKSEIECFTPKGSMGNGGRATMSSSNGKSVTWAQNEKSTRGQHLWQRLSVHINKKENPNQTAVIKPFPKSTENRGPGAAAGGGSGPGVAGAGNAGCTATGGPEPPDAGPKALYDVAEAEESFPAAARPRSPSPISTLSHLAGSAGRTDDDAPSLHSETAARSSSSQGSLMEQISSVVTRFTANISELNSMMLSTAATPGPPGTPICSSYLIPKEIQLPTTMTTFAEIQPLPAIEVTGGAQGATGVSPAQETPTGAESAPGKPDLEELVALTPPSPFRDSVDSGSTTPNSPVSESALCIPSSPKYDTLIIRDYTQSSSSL

EC50 [1] [µM] | EC50 [2] [µM] | SMILES
0.108 ± 0.041 | – | O=C(c1ccc(F)cc1)N1CCC[C@H](c2nc(-c3ccc(F)cc3)no2)C1 [ADX47273]
– | 8 ± 1.6 | NC(C(=O)O)c1cc(O)cc(O)c1 (centres unmarked) [DHPG]
